The values below come from ChEMBL document CHEMBL1134926, “Structure-Activity relationships of 2-substituted 5,7-Diarylcyclopenteno[1,2-b]pyridine-6-carboxylic acids as a novel class of endothelin receptor antagonists” (Bioorg Med Chem Lett, 2002).

In assay [1] the target is T1, Endothelin receptor type B (Homo sapiens, UniProt P24530).
T1 sequence (P24530 whole entry): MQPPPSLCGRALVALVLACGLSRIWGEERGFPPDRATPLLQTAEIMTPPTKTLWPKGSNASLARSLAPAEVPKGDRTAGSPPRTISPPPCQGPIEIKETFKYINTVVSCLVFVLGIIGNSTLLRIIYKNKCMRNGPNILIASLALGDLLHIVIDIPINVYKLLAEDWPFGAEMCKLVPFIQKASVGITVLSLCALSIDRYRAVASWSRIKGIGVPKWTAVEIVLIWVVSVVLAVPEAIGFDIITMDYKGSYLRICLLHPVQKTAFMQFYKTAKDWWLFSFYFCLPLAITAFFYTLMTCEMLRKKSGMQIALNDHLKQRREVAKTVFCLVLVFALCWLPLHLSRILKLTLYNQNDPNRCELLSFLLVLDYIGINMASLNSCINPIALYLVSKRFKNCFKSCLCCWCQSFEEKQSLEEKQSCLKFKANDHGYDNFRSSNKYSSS
Nature of the assay: Inhibitory activity against I-labeled ET-1 binding to Endothelin B receptor.

Assay [2] addresses Endothelin receptor, ET-A/ET-B (Homo sapiens) (UniProt P24530+P25101). Nature of the assay: Selectivity was calculated as the ratio of IC50 of Endothelin B receptor / IC50 of Endothelin A receptor. In kind it is protein assay.
Another assay has as its target T2, Endothelin-1 receptor (Homo sapiens, UniProt P25101).
T2 sequence (P25101 whole entry): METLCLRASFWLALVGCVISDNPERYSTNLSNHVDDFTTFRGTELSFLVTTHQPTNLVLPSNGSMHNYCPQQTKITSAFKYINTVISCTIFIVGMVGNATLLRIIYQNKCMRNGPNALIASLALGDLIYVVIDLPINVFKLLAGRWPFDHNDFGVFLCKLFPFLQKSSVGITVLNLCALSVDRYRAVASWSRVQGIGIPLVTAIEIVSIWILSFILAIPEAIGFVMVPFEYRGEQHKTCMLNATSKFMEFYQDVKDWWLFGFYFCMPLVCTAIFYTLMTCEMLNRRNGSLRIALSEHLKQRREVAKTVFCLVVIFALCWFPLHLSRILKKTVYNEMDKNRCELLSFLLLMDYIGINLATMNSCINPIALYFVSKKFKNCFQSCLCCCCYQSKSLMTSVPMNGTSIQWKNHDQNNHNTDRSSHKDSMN
Kind of assay: Inhibitory activity against I-labeled ET-1 binding to Endothelin A receptor.

For orientation: IC50 means the midpoint of a concentration-inhibition curve. Read a low IC50 as greater potency. In the case of `C=CCCc1ccc2c(n1)[C@@H](c1ccc(OC)cc1)[C@H](C(=O)O)[C@H]2c1ccc2c(c1)OCO2`, the half-inhibitory concentration (IC50) was found to be 14 nM in assay [1] and 0.2 nM on Endothelin-1 receptor. In addition, the Ratio in assay [2] was 70.
The matching figures for `COc1ccc([C@@H]2c3nc(CC(C)C)ccc3[C@H](c3ccc4c(c3)OCO4)[C@H]2C(=O)O)cc1`: 8.4 nM, 0.32 nM and 26.
`CCc1ccc2c(n1)[C@@H](c1ccc(OC)cc1)[C@H](C(=O)O)[C@H]2c1ccc2c(c1)OCO2`: the IC50 in assay [1] came out at 87 nM; at Endothelin-1 receptor it was 4.5 nM. Moreover, the Ratio in assay [2] is 19.
The matching figures for `COc1ccc([C@@H]2c3ncccc3[C@H](c3ccc4c(c3)OCO4)[C@H]2C(=O)O)cc1`: 410 nM, 2.4 nM and 170.
The matching figures for `CCCCc1ccc2c(n1)[C@@H](c1ccc(OC)cc1)[C@H](C(=O)O)[C@H]2c1ccc2c(c1)OCO2`: 11 nM, 0.21 nM and 52.
The matching figures for `COc1ccc([C@@H]2c3nc(C)ccc3[C@H](c3ccc4c(c3)OCO4)[C@H]2C(=O)O)cc1`: 100 nM, 5.7 nM and 18.
Take `CCCc1ccc2c(n1)[C@@H](c1ccc(OC)cc1)[C@H](C(=O)O)[C@H]2c1ccc2c(c1)OCO2`: the IC50 in assay [1] turned out to be 30 nM; on Endothelin-1 receptor, 0.37 nM. Further, the Ratio in assay [2] was 81.
The corresponding values for `CCCCCc1ccc2c(n1)[C@@H](c1ccc(OC)cc1)[C@H](C(=O)O)[C@H]2c1ccc2c(c1)OCO2` are 9.1 nM, 1.9 nM and 4.8.
The corresponding values for `COc1ccc([C@@H]2c3nc(C4CC4)ccc3[C@H](c3ccc4c(c3)OCO4)[C@H]2C(=O)O)cc1` are 63 nM, 1.6 nM and 39.
The corresponding values for `COc1ccc([C@@H]2c3nc(N4CCCC4)ccc3C(c3ccc4c(c3)OCO4)[C@H]2C(=O)O)cc1` (single isomer, unassigned) are 21 nM, 2.2 nM and 9.5.
In the case of `COc1ccc([C@@H]2c3nc(-c4ccccc4)ccc3C(c3ccc4c(c3)OCO4)[C@H]2C(=O)O)cc1` (single isomer, unassigned), the IC50 is 130 nM in assay [1] and 15 nM at Endothelin-1 receptor. Besides, the Ratio in assay [2] is 8.7.
The matching figures for `COc1ccc([C@@H]2c3nc(N(C)C(C)C)ccc3C(c3ccc4c(c3)OCO4)[C@H]2C(=O)O)cc1` (single isomer, unassigned): 14 nM, 3.2 nM and 4.4.
The matching figures for `CCCSc1ccc2c(n1)[C@@H](c1ccc(OC)cc1)[C@H](C(=O)O)C2c1ccc2c(c1)OCO2` (single isomer, unassigned): 53 nM, 8.2 nM and 6.5.
The matching figures for `CCNCc1ccc2c(n1)[C@@H](c1ccc(OC)cc1)[C@H](C(=O)O)C2c1ccc2c(c1)OCO2` (single isomer, unassigned): 940 nM, 7 nM and 130.
For the molecule `CCCOc1ccc2c(n1)[C@@H](c1ccc(OC)cc1)[C@H](C(=O)O)C2c1ccc2c(c1)OCO2` (single isomer, unassigned), the IC50 in assay [1] is 65 nM; on Endothelin-1 receptor it was 0.92 nM. In assay [2], the Ratio was 71.
Regarding `COc1ccc([C@@H]2c3nc(CCC(=O)O)ccc3C(c3ccc4c(c3)OCO4)[C@H]2C(=O)O)cc1` (single isomer, unassigned), the IC50 worked out at 530 nM in assay [1] and 150 nM at Endothelin-1 receptor. Moreover, the Ratio in assay [2] was 3.5.
The matching figures for `COc1ccc([C@@H]2c3nc(CCCO)ccc3C(c3ccc4c(c3)OCO4)[C@H]2C(=O)O)cc1` (single isomer, unassigned): 190 nM, 0.55 nM and 350.
On to `CCOCc1ccc2c(n1)[C@@H](c1ccc(OC)cc1)[C@H](C(=O)O)C2c1ccc2c(c1)OCO2` (single isomer, unassigned), for which the values for the IC50 (in assay [1]; at Endothelin-1 receptor) were 140 nM and 0.51 nM, respectively. Further, the Ratio in assay [2] was 270.
The corresponding values for `CCCNc1ccc2c(n1)[C@@H](c1ccc(OC)cc1)[C@H](C(=O)O)C2c1ccc2c(c1)OCO2` (single isomer, unassigned) are 63 nM, 0.12 nM and 520.
The corresponding values for `COc1ccc([C@@H]2c3nc(NC(C)C)ccc3C(c3ccc4c(c3)OCO4)[C@H]2C(=O)O)cc1` (single isomer, unassigned) are 42 nM, 0.1 nM and 420.
